Patent US20070281857A1, “FORMIC ACID AS AN HERBICIDE” (MARRONE ORGANIC INNOVATIONS, priority 2006, published 2007)
Like-named read-outs stand apart in the source and are kept apart here.

Tests used:
[1] = test system: annual weeds tested including foxtail, lambsquarters, and pigweed; details: found by the USDA; cited from earlier work
[2] = test system: wheat (Triticum aestivum); details: spray
Method: (§1) The herbicidal effect of formic acid was compared with that of acetic acid in a greenhouse study using radish (Raphanus sativus) and wheat (Triticum aestivum) as test plants. Both formic acid and acetic acid were diluted in water at 1, 3, and 5%, and deionized water was used as a control. Tween 20 was added to each of the solutions at a rate 0.04% for use as a surfactant. Solutions were applied to plants using a small handheld sprayer. Plants were evaluated at 24- and 72-hours after treatment for the % control.

[3] = test system: radish (Raphanus sativus); details: spray
Method: as §1

[4] = test system: dicotyledonous radish plants (Raphanus sativas); details: one day post-treatment
Text: (§2) In order to determine whether formic acid could be used as a foliar herbicide it was applied as a foliar spray to the leaves of dicotyledonous radish plants (Raphanus sativas) and monocotyledonous wheat plants (Triticum aestivum). Solutions were applied to plants using a small handheld sprayer.
(§3) Formic acid and acetic acid solutions at three concentrations (1%, 3%, 5%) were applied and water was used as a check. A barrier was inserted between the rows of plants on either side of the row being treated to avoid drift of sprays into neighboring rows. Plants were evaluated at 24-hour and 72-hour intervals for the number of surviving plants and a percentage was derived from this number in comparison with the number of plants originally present in the row.

[5] = test system: monocotyledonous wheat plants (Triticum aestivum); details: foliar spray 5%; one day post-treatment
Text: as §2, §3

[6] = test system: Canada thistle and other perennials; details: cited from earlier work

## CC(=O)O [Acetic acid]
[1]
  share of annual weeds tested against which effective: 80%
[2]; 5%, 72-h
  % control of wheat seedlings: 28%
[2]; lower concentrations (1 and 3%), after 72-h
  % control of wheat seedlings: 5-14%
[3]; 1%
  % control of the dicot weeds (radish): 51%
[3]; 3%
  % control of the dicot weeds (radish): 71%
[3]; 5% dilution
  control of radish plants compared with formic acid (100%): comparable
[4]; foliar spray 1%
  foliage surviving, radish: 50%
[4]; foliar spray 3%
  foliage surviving, radish: 30%
[4]; foliar spray 5%
  killing of foliage of radish plants: killed all foliage
[5]
  wheat plants killed: 30%
[6]
  control of perennials: does not control the root system
